Measured values reported in PMC8050276, “Estradiol analogs attenuate autophagy, cell migration and invasion by direct and selective inhibition of TRPML1, independent of estrogen receptors” (Scientific Reports, 2021).

Columns and labels:
Type in all cases: cell-based
TRPML1 = target: T1, TRPML1 (Homo sapiens, UniProt Q9GZU1); assay: Endolysosomal patch-clamp, endo-lysosomes from MDA-MB-231 cells; conditions: activation with ML-SA1
T1 construct: vacuolin-enlarged endo-lysosomes isolated from WT and KO1 MDA-MB-231 cells; endogenous in cells; host or cells: MDA-MB-231
T1 sequence (Q9GZU1 whole entry): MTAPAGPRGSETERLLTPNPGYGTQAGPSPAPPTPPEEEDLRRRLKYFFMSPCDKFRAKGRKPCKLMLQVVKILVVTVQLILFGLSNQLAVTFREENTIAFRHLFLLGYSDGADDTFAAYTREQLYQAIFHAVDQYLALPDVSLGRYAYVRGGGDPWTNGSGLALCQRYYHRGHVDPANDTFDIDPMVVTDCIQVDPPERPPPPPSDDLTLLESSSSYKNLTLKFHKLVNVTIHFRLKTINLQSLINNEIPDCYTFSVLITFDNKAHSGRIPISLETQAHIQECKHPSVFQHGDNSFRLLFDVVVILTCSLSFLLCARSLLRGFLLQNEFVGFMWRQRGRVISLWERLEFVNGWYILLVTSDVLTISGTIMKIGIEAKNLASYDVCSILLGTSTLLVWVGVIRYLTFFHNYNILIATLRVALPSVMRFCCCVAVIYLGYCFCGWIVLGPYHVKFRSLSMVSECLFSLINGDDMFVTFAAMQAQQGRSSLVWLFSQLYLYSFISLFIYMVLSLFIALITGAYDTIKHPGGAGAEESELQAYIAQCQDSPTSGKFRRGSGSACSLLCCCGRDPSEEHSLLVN
Experimental: For whole-LE/LY manual patch-clamp recordings, cells were treated with 1 μM vacuolin-1 (> 2 h) at 37 °C and 5% CO2 and experiments performed as described previously[19],[25]. Compound was washed out before patch-clamp experimentation. Currents were recorded using an EPC-10 patch-clamp amplifier (HEKA, Lambrecht, Germany) and PatchMaster acquisition software (https://www.heka.com/). Data were digitized at 40 kHz and filtered at 2.8 kHz. Fast and slow capacitive transients were cancelled by the compensation circuit of the EPC-10 amplifier. All recordings were obtained at room temperature and were analyzed using PatchMaster acquisition software (https://www.heka.com/) and OriginPro 6.1 (https://www.originlab.com/). […] For all experiments, salt-agar bridges were used to connect the reference Ag–AgCl wire to the bath solution to minimize voltage offsets. Liquid junction potential was corrected. For the application of the small molecule inhibitors/flavonoids, cytoplasmic solution was completely exchanged by cytoplasmic solution containing compound. The current amplitudes at − 100 mV were extracted from individual ramp current recordings. Unless otherwise stated, cytoplasmic solution contained 140 mM K-MSA, 5 mM KOH, 4 mM NaCl, 0.39 mM CaCl2, 1 mM EGTA and 10 mM HEPES (pH was adjusted with KOH to 7.2). […]

hTRPML2 = target: T2, hTRPML2 (Homo sapiens, UniProt Q8IZK6); assay: Whole-cell patch-clamp, tetracycline-inducible HEK293 hTRPML2; conditions: 30 µM ML-SA1, pH 7.4; read-out: TRPML2 IC50, whole-cell patch-clamp
T2 construct: host or cells: HEK293, FLP-in-Tet-On, tetracycline-induced
T2 sequence (Q8IZK6 1-566): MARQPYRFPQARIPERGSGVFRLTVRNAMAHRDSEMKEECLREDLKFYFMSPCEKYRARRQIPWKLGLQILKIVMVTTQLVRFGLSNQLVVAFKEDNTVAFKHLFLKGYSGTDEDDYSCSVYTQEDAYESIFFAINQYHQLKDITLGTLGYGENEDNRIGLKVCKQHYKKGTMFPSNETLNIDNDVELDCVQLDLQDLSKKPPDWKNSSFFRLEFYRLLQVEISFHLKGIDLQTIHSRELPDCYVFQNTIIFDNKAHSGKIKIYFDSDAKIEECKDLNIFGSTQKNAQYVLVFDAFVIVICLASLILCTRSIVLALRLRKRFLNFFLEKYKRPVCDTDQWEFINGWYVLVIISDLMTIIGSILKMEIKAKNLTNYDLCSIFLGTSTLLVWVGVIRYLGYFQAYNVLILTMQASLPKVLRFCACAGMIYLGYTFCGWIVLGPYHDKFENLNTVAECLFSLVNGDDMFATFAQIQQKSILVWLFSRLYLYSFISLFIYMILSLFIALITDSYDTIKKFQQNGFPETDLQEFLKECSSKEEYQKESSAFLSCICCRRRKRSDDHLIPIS
Experimental: Experiments were performed as described previously[20],[42]. In brief, cells were cultured on coverslips (Fisherbrand, Fisher Scientific) in complete DMEM medium with 10% FBS (Thermo Fisher). HEK293 cells expressing the desired channel protein were patch-clamped after overnight induction with tetracycline (1 µg/mL). […] The low pH bath solution contained (mM) 150 Na-Gluconate, 5 KCl, 2 CaCl2, 1 MgCl2, 10 glucose, 10 HEPES and 10 MES (pH 4.6). Whole‐cell currents were recorded using a Multiclamp 700B amplifier (Molecular Devices) with low‐pass filtering at 3 kHz. […] Current recording was done with WinWCP5.2.7 (University of Strathclyde, UK) software, and analysis was done with the help of a customized Igor pro program (WaveMetrics).

[1] = tested on: TRPC3, 4, 5, 6, and 7; TRPM2, 3, and 8; TRPV1, 2, 3, and 4; assay: Fluo-4 counter screen against other TRP channels stably expressed in HEK293; conditions: most channels; activated with known ligands

`COc1ccc2c(c1)CC[C@@H]1[C@@H]2CC[C@]2(C)[C@@H](O)CC[C@@H]12` [EDME, 17β-estradiol methyl ether] was tested, and the “inhibition of TRPML1 activation in MDA-MB-231 endo-lysosomes” value (TRPML1) was “inhibits TRPML1 activation”, the IC50 (hTRPML2) was 3.8 µM and the “IC50 at other TRP channels” value [1] was “no meaningful IC50s”.
